Patent US9101613B2, “Methods for treating neurological disease” (Neurim Pharmaceuticals (1991) Ltd., priority 2006, dated 2015)
Like-named read-outs stand apart in the source and are kept apart here.

Legend:
MT-2 receptor = biological target: T1, MT-2 receptor (Homo sapiens, UniProt P49286); experiment: 125I-melatonin binding in membranes of CHP-K1 cells, MT-2; conditions: for inhibition at 10 µM: read-out: MT-2 receptor binding % inhibition by 10 μM
T1 construct: expressed in transfected cells; host or cells: CHP-K1 (Chinese hamster ovary) cells (so in the source)
T1 sequence (P49286 1-362): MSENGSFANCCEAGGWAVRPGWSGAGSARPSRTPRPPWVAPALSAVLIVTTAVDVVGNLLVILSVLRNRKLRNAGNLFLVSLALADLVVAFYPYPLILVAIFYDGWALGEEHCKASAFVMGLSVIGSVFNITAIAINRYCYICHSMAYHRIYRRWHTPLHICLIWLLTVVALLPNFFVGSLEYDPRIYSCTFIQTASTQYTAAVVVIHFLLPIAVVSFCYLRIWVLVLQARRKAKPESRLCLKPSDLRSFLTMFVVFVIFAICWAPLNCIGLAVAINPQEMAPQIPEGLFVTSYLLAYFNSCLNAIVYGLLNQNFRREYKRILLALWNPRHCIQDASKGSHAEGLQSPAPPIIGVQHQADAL
Description: Aliquots of suspended membranes of human recombinant CHP-K1 (Chinese hamster ovary) cells stably expressing human melatonin-1 or melatonin-2 (MT-1 or MT-2) receptors or of hamster brain (MT-3) were incubated at 25° C. with 0.05 nM ^125I-melatonin in buffer (25 mM HEPES, pH 7.4, 5 mM MgCl2, 1 mM CaCl2, 0.5% BSA) or with 0.1 nM for MT-3 alone or in the presence of 1 nM, 10 nM, 0.1 μM, 1 μM and 10 μM of test substances N-[2-(5-methoxy-indol-3-yl)-ethyl]-commenamide, N-[2-(5-methoxy-indol-3-yl)-ethyl]-comanilamide, N-[2-(5-methoxy-indol-3-yl)-ethyl]-coumalylamide, N-[2-(5-methoxy-indol-3-yl)-ethyl]-2-methoxy-commenamide, N-[2-(5-methoxy-indol-3-yl)-ethyl]-chelidonamide, O-[2-(5-methoxy-indol-3-yl)-ethyl]-comenic ester, N-[2-(5-methoxy-indol-3-yl)-ethyl]-2-Pyrone-6-carboxamide and N-[2-(2-bromo-5-methoxy-indol-3-yl)-ethyl]-coumalylamide for 3 hours for MT-1, 4 hours for MT-2 and 30 min for MT-3. The binding reaction was terminated and the membranes were washed with 4 ml of ice-cold HEPES buffer by vacuum filtration. Membranes were then collected, and the filters containing the bound ^125I-melatonin were assayed for the amount of radioactivity in a […]. Non-specific binding was evaluated using a reaction with 1 μM 6-chloromelatonin (MT-1 and MT-2) or 30 μM melatonin (MT-3).

5-HT2B receptor = biological target: T2, 5-HT2B receptor (Homo sapiens, UniProt P41595); experiment: Serotonin receptor binding, [3H] LSD, CHO-K1 membranes
T2 construct: expressed in transfected cells; host or cells: CHO-K1
T2 sequence (P41595 whole entry): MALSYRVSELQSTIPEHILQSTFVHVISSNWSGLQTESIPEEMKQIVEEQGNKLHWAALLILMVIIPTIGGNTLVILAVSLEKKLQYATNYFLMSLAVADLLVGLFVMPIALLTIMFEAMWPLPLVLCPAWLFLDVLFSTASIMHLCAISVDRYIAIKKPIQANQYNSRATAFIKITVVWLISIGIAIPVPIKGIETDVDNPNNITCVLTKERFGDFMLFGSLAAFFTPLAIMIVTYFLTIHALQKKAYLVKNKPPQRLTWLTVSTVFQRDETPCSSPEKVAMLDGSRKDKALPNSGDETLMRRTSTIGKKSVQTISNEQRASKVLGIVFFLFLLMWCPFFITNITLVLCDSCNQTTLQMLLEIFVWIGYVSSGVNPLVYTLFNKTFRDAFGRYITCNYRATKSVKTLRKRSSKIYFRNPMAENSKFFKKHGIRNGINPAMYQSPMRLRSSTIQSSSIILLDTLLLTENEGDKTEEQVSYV
Description: (§1) Aliquots of suspended membranes of human recombinant CHO-K1 cells stably expressing human 5-HT1A, 5-HT2A, 5-HT1B, 5-HT2B, 5-HT2C, 5-HT4, 5-HT6 or 5-HT7 receptors were pre-incubated at 25° C. with 1.5 nM [^3H] 8-OH-DPAT (5-HT1A), 1.5 nM [^3H] Ketanserin (5-HT2A), 0.01 nM [^125I] Cyanopindolol (5-HT1B), 1 nM [^3H] Mesulergine (5-HT2c), 0.7 nM [^3H] GR-113808 (5-HT4) or at 37° C. 1.2 nM [^3H] LSD (5-HT2B, 5-HT6 and 5-HT7) in buffer (50 mM Tris-HCl, pH 7.7) alone or in the presence of 1 nM, 10 nM, 0.1 μM, 1 μM, and 10 μM of N-[2-(5-methoxy-indol-3-yl)-ethyl]-commenamide, N-[2-(5-methoxy-indol-3-yl)-ethyl]-coumalylamide, N-[2-(5-methoxy-indol-3-yl)-ethyl]-comanilamide, N-[2-(5-methoxy-indol-3-yl)-ethyl]-2-methoxy-commenamide or N-[2-(5-methoxy-indol-3-yl)-ethyl]-chelidonamide for 60 minutes. The binding reaction was terminated and washed with 4 ml ice-cold 50 mM Tris-HCl buffer by vacuum filtration. Membranes were then collected, and the filters containing the bound ligands were assayed for the amount of radioactivity in a b-counter. Non-specific binding was evaluated using a reaction with 10 μM metergoline (5-HT1A), 1 μM mianserin (5-HT2A and 5-HT2c) or 10 μM serotonin (5-HT1B, 5-HT2B, 5-HT4, 5-HT6 and 5-HT7).

3T3-L1 adipocytes = experiment: 2-[3H]-deoxy-d-glucose uptake in FFA-treated 3T3-L1 adipocyte model; format: cell-based; conditions: Insulin 20 nM + FFA 300 μM (3 h) + substance 10 nM
Description: Adipocytes were glucose-starved for 1 h in Hepes-salt buffer containing 2% FFA-free BSA. FFA (free fatty acids) were then added to the cells at the indicated concentrations (300 μM) for the indicated times (3 h). 10 min before the end of the FFA treatment, the cells were stimulated with insulin (20 nM)/melatonin (10 nM)/test compounds (10 nM) at 37° C. 2-[^3H]-deoxy-d-glucose at 1 μCi/mL and 0.1 mM unlabeled 2-deoxyglucose in KRP-HEPES buffer was added and cells were incubated for 10 min at room temperature. Non-specific glucose uptake was measured by parallel incubations in the presence of 10 μM cytochalasin B, which blocks transporter-mediated glucose uptake, and was subtracted from total uptake in each assay. Cells were then washed three times with ice-cold phosphate buffered saline (PBS) and solubilized in 1M NaOH for 20 minutes. The sample was then counted using a scintillation counter. 2-[^3H]-deoxy-d-glucose uptake was assayed in triplicates for each condition in at least 3 independent experiments. 2-[^3H]-deoxy-d-glucose uptake (counts per minute-cpm) are presented as mean+SE of triplicates in a representative experiment or results of three independent experiments. ANOVA test was used with significance of P<0.05 (Table 7).

5-HT7 receptor = biological target: T3, 5-HT7 receptor (Homo sapiens, UniProt P34969); experiment: Serotonin receptor binding, [3H] LSD, CHO-K1 membranes
T3 construct: expressed in transfected cells; host or cells: CHO-K1
T3 sequence (P34969 whole entry): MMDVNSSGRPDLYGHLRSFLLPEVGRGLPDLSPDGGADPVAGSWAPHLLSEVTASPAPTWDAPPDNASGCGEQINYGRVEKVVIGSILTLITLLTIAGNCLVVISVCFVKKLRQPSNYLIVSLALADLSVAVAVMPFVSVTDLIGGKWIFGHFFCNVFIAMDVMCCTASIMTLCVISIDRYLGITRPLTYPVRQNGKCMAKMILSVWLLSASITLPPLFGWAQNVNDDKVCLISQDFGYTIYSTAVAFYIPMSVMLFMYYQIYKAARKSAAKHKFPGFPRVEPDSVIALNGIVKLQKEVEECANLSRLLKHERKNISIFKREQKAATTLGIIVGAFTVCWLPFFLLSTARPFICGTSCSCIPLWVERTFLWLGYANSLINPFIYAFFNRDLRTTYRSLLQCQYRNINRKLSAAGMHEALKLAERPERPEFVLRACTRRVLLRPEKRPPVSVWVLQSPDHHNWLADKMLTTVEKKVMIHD
Description: as §1

CD1 mice = experiment: Motimeter assay (motor activity and rearing); format: in vivo; conditions: 100 mg/kg i.p.; for effect on motor activity and rearing: 30-35 min and 60-65 min after treatment
Description: Mice were starved for 16 hrs before treatment. Male CD1 mice, weighing 25-30 g, were treated intraperitoneally with melatonin, N-[2-(5-methoxy-indol-3-yl)-ethyl]-comanilamide or N-[2-(5-methoxy-indol-3-yl)-ethyl]-commenamide in a dose of 100 mg/kg. The horizontal (i.e. locomotion) and vertical (i.e. rearing) movements were measured for 5 minutes two times, 30 and 60 min after treatment. Eight mice/group were used. The 4-channel activity meter is a square-shaped frame containing transparent infra-red permeable acrylic cages. The frames feature two pairs of light-beam strips for measuring horizontal movements, and two pairs for measuring rearing. Each strip is equipped with 16 infra-red sensors.

[1] = 0.05 nM 125I-melatonin, 25° C., 4 hours, read-out: MT-2 receptor binding IC50
[2] = 0.05 nM 125I-melatonin, 25° C., 4 hours, read-out: MT-2 receptor binding KI

Row | Structure (SMILES) | IC50 (MT-2 receptor; [1]) | Ki (MT-2 receptor; [2]) | inhibition at 10 µM (MT-2 receptor; 10 μM, 0.05 nM 125I-melatonin) | IC50 (5-HT2B receptor; read-out: 5-HT2B IC50) | Ki (5-HT2B receptor; read-out: 5-HT2B KI) | 2-[3H]-deoxy-d-glucose uptake (cpm) (3T3-L1 adipocytes) | affinity to 5-HT2B (5-HT2B receptor) | affinity to 5-HT7 (5-HT7 receptor) | IC50 (5-HT7 receptor; read-out: 5-HT7 IC50) | Ki (5-HT7 receptor; read-out: 5-HT7 KI) | affinity to MT-2 (MT-2 receptor) | effect on motor activity and rearing (CD1 mice) | also measured
1 | COc1ccc2[nH]cc(CCNC(=O)c3cc(=O)cc(C(=O)O)o3)c2c1 [N-[2-5-methoxy-indol-3-yl)-ethyl]-chelidonamide] | 1760 nM | 910 nM | 89% | 2100 nM | 1330 nM | 1407 cpm |  |  |  |  |  |  | 
2 | COc1ccc2[nH]cc(CCNC(=O)c3cc(=O)c(OC)co3)c2c1 [N-[2-(5-methoxy-indol-3-yl)-ethyl]-2-methoxy-commenamide] | 826 nM | 429 nM | 93% | 1760 nM | 1120 nM | 1522 cpm | moderate affinity | moderate affinity | 735 nM | 420 nM |  |  | 
3 | COc1ccc2[nH]cc(CCNC(=O)c3cc(=O)cco3)c2c1 [N-[2-(5-methoxy-indol-3-yl)-ethyl]-comanilamide] | 65 nM | 34 nM | 100% | 6780 nM | 4320 nM | 1492 cpm |  |  |  |  | high affinity | did not change significantly the motor activity and rearing | 
4 | COc1ccc2[nH]cc(CCNC(=O)c3cc(=O)c(O)co3)c2c1 [N-[2-(5-methoxy-indol-3-yl)-ethyl]-commenamide] |  |  |  |  |  | 1530 cpm | moderate affinity | moderate affinity |  |  | high affinity | did not change significantly the motor activity and rearing | IC50 (MT-2 receptor): 13 nM; Ki (MT-2 receptor): 7 nM; inhibition at 10 µM (MT-2 receptor): 101%; IC50 (5-HT2B receptor): 2250 nM; Ki (5-HT2B receptor): 1430 nM; IC50 (5-HT7 receptor): 230 nM; Ki (5-HT7 receptor): 132 nM
5 | COc1ccc2[nH]cc(CCNC(=O)c3ccc(=O)oc3)c2c1 [N-[2-(5-methoxy-indol-3-yl)-ethyl]-coumalylamide] | 370 nM | 190 nM | 95% | 3000 nM | 1910 nM | 1494 cpm |  | moderate affinity | 664 nM | 381 nM |  | significantly decreased both the motor activity and rearing | motor activity (horizontal movement) changes (%) 30 min (CD1 mice; 30 min, vs vehicle): −63.1%; motor activity (horizontal movement) 30 min Means ± SE (CD1 mice; 30 min after treatment, 5 min measurement): 158.8 ± 37.0; motor activity (horizontal movement) changes (%) 60 min (CD1 mice; 60 min, vs vehicle): −80.3%; motor activity (horizontal movement) 60 min Means ± SE (CD1 mice; 60 min after treatment, 5 min measurement): 62.3 ± 16.6
